The target of test [1] is T1, His-tagged cytoplasmic domain of EGFR (Homo sapiens, UniProt P00533).
T1 construct: containing the EGFR cDNA encoding amino acids 645 - 1186 preceded by Met-Ala-(His)6; made in house; host or cells: Sf9 cells, recombinant baculovirus vHcEGFR52
Put plainly: Inhibition of Epidermal Growth Factor Receptor Kinase (EGF-R) using recombinant enzyme.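 Further: radiometric kinase assay measuring radiolabeled phosphate transfer from ATP onto the peptide tyrosine by scintillation counting, control is reaction without compound, background subtracted, IC50 from dose-response curve.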 It is filed as biochemical. Particulars: recombinant enzyme; RR-SRC peptide; average of the number of tests; read-out: IC50.

In another test the test system is SW620. Put plainly: Inhibition of cancer cell growth as measured by cell number, SW620.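 Further: SW620 was included as a cell line with little or no EGFR or HER2/neu expression, in contrast to receptor-overexpressing lines.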 It is filed as cell-based, human. The conditions noted are these: Homo sapiens, SW-620, 48 h, Table 8.
A further test concerns MCF7. Put plainly: Inhibition of cancer cell growth as measured by cell number, MCF7.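 Further: MCF7 was included as a line with little or no EGFR or HER2/neu expression, in contrast to the receptor-overexpressing lines of the panel.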 The format is cell-based, human. Particulars: Homo sapiens, MCF7, 48 h, Table 8.
The next test deals with LOX. Briefly: Inhibition of cancer cell growth as measured by cell number, LOX.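 Further: LOX cells served as a line with low or absent EGFR and HER2/neu expression, in contrast to receptor-overexpressing lines.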 The format is cell-based, human. Particulars: Homo sapiens, LOX, 48 h, Table 8.
For another test, the system named is A431. Briefly: Inhibition of cancer cell growth as measured by cell number, A431.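 On all read-outs here: human A431 line, picked because it overexpresses epidermal growth factor receptor (EGFR).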 The format is cell-based, human. Particulars: Table 8; for IC50: Homo sapiens, A-431, 48 h.
A further test concerns SKBR3. Put plainly: Inhibition of cancer cell growth as measured by cell number, SKBR3.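 On all read-outs here: SK-BR-3 cells were selected as a line overexpressing HER2/neu.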 It is filed as cell-based, human. The conditions noted are these: Table 8; for IC50: Homo sapiens.
In test [2] the target is recombinant human MEK 1 (MAPKK) and recombinant human ERK2 (MAPK). Put plainly: Mitogen Activated Protein Kinase (MAPK) assay, two component coupled MEK 1 / ERK2.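 Further: MEK 1-activated ERK2 phosphorylates MBP or Myc peptide with 33P-ATP, filter capture and scintillation counting, inhibitor preincubated with ERK2 30 min at 0 °C, inhibition relative to uninhibited control.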 It is filed as biochemical. The conditions noted are these: separate entries for the same compound = evaluated more than one time.
Method: To evaluate inhibitors of the MAP (mitogen activated protein) kinase a two component coupled standard pharmacological test procedure, which measures phosphorylation of a serine/threonine residue in an appropriate sequence in the substrate in the presence and absence of a putative inhibitor, was used. Recombinant human MEK 1 (MAPKK) was first used to activate recombinant human ERK2 (MAPK) and the activated MAPK (ERK) was incubated with substrate (MBP peptide or MYC peptide) in the presence of ATP, Mg^+2 and radiolabeled ^33P ATP. The phosphorylated peptide was captured on a P 81 phosphocellulose filter (paper filter or embedded in microtiter plate) washed and counted by scintillation methods.
The peptide substrates used in the assay are MBP, peptide substrate ([sequence]), or synthetic Myc substrate, ([sequence]•5 TFA. The recombinant enzymes used were prepared as GST fusion proteins of human ERK 2 and human MEK 1. Inhibitor samples were prepared as 10X stocks in 10% DMSO and an appropriate aliquot was used to deliver either 10 ug/ml for a single point screening dose or 100, 10, 1, and 0.1 uM final concentration for a dose response curve. Final DMSO concentrations were less than or equal to 1%.
The reaction was run as follows in 50 mM Tris kinase buffer, pH 7.4 in a reaction volume of 50 ul. The appropriate volume of kinase buffer and inhibitor sample was added to the tube. Appropriate dilution of enzyme was delivered to give 2-5 ug recombinant MAPK (Erk ) per tube. The inhibitor was incubated with MAPK (Erk) for 30 min at 0 deg. […] Recombinant Mek (MAPKK) ( 0.5-2.5 ug) or fully activated Mek (0.05-0.1 units) was added to activate the Erk and incubated for 30 min at 30° C. […] Samples were incubated at 30°C for 30 minutes and the reaction was stopped by adding 25 µl of ice cold 10 %TCA .After samples were chilled on ice for 30 min, 20 µl of sample was transferred onto P 81 phosphocellulose filter paper or appropriate MTP with embedded P 81 filter. Filter papers or MTP were washed 2 times with a large volume of 1% acetic acid, then 2 times with water. The filters or MTP were briefly air dried before addition of scintillant and samples were counted in the appropriate scintillation counter set up for reading ^33P isotope.
The raw data was captured as cpm. Sample replicates were averaged and corrected for background count. Mean cpm data was tabulated by group and % inhibition by a test compound was calculated as (corrected cpm control- corrected. cpm sample/control) X 100 = % inhibition.
Setting [3] is: read-out: IC50 SW620, cell number, Sulforhodamine B, 48 hours exposure.
Where [4] appears, read: read-out: IC50 MCF7, cell number, Sulforhodamine B, 48 hours exposure.
Where [5] appears, read: read-out: IC50 LOX, cell number, Sulforhodamine B, 48 hours exposure.
Setting [6] is: read-out: IC50 A431, cell number, Sulforhodamine B, 48 hours exposure.
Setting [7] is: SK-BR-3, 48 h, read-out: IC50 SKBR3, cell number, Sulforhodamine B, 48 hours exposure.
[8] abbreviates: cell number, Sulforhodamine B, 48 hours exposure.
Where [9] appears, read: cell number, Sulforhodamine B, 48 hours exposure, read-out: IC50 SW620.
Where [10] appears, read: cell number, Sulforhodamine B, 48 hours exposure, read-out: IC50 MCF7.
Where [11] appears, read: cell number, Sulforhodamine B, 48 hours exposure, read-out: IC50 LOX.
[12] abbreviates: cell number, Sulforhodamine B, 48 hours exposure, read-out: IC50 A431.
The mark [13] stands for this setting: SK-BR-3, cell number, Sulforhodamine B, 48 hours exposure, read-out: IC50 SKBR3.

The results in this text go back to patent EP0973746B1, “SUBSTITUTED 3-CYANO QUINOLINES” (Wyeth Holdings Corporation, priority 1997, dated 1998).

≈ marks a conversion by molar mass, not a printed value. Where two headings read alike, the source gives them in different places.

T1 sequence (P00533 669-1210): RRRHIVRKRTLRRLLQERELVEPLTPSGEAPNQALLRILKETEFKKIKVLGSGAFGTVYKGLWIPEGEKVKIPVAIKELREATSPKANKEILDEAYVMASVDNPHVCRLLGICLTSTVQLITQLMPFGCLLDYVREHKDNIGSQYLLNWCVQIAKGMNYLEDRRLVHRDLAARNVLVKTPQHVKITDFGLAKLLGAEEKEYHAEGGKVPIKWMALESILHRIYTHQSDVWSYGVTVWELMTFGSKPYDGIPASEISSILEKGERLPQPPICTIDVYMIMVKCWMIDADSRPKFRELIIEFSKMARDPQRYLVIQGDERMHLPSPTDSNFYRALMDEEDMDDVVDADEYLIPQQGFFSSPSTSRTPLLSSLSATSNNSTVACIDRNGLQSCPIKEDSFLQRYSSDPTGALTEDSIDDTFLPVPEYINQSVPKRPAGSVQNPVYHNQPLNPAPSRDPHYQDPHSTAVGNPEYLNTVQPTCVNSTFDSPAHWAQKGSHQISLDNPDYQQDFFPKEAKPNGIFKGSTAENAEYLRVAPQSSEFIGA
From the text for A431: (§1) The cell lines were chosen since they overexpressed epidermal growth factor receptor (EGFR) (i.e. A431) or HER2/neu (SKBR3), or had little to no expression of the these receptors (SW620, LOX, MCF7).
From the text for LOX: as §1
From the text for MCF7: as §1
From the text for SKBR3: as §1
From the text for SW620: as §1

As a reminder, the IC50 is the midpoint of a concentration-inhibition curve. Regarding `C=CC(=O)Nc1ccc2ncc(C#N)c(Nc3cccc(OC)c3)c2c1` [Example 138, N-{3-Cyano-4-[(3-methoxyphenyl)amino]-6-quinolinyl}-2-propenamide], the IC50 is 0.0035 µM in test [1]; 3.52 µg/mL (≈ 10.2 µM) in the test with SW620 (setting [3]); 3.51 µg/mL (≈ 10.2 µM) with MCF7 (setting [4]); 1.12 µg/mL (≈ 3.25 µM) in the test with LOX (setting [5]); 0.44 µg/mL (≈ 1.28 µM) with A431 (setting [6]); < 0.01 µg/mL in the test on SKBR3 (setting [7]).

Take `C#Cc1cccc(Nc2c(C#N)cnc3ccc(NC(=O)C#CC)cc23)c1` [Example 164, N-{3-Cyano-4-[(3-ethynylphenyl)amino]-6-quinolinyl}-2-butynamide]: the IC50 in test [1] was 0.09 µM; in the test with MCF7 (setting [4]) it was 57 µg/mL (≈ 163 µM); in the test with LOX (setting [5]), 0.9 µg/mL (≈ 2.57 µM); in the test with A431 (setting [6]) it was 0.6 µg/mL (≈ 1.71 µM); in the test with SKBR3 (setting [7]), 0.7 µg/mL (≈ 2 µM); in test [2], > 100 µM. Moreover, in the test with A431 (setting [8]), the “IC50 A431” value was found to be 0.322 µg/mL (≈ 0.919 µM). The “IC50 SKBR3” value with SKBR3 (setting [8]) turned out to be 0.684 µg/mL (≈ 1.95 µM).

Take `C#Cc1cccc(Nc2c(C#N)cnc3ccc(N)cc23)c1` [Example 167, 6-Amino-4-[(3-ethynylphenyl)amino]-3-quinolinecarbonitrile]: the concentration for half-maximal inhibition (IC50) was 8.1 µg/mL (≈ 28.5 µM) in the test with SW620 (setting [3]); 8.5 µg/mL (≈ 29.9 µM) in the test on MCF7 (setting [4]); 5.3 µg/mL (≈ 18.6 µM) in the test with LOX (setting [5]); 2.6 µg/mL (≈ 9.14 µM) in the test with A431 (setting [6]); 3.7 µg/mL (≈ 13 µM) in the test on SKBR3 (setting [7]); > 100 µM in test [2].

Take `C#Cc1cccc(Nc2c(C#N)cnc3ccc([N+](=O)[O-])cc23)c1` [Example 168, 4-[(3-Ethynylphenyl)amino]-6-nitro-3-quinolinecarbonitrile]: the 50% inhibitory concentration (IC50) worked out at 9.1 µg/mL (≈ 29 µM) in the test on SW620 (setting [3]); 5.94 µg/mL (≈ 18.9 µM) with MCF7 (setting [4]); 1.76 µg/mL (≈ 5.6 µM) in the test on LOX (setting [5]); 1.57 µg/mL (≈ 5 µM) with A431 (setting [6]); 1.38 µg/mL (≈ 4.39 µM) in the test with SKBR3 (setting [7]); 80 µM in test [2].

With `CCOc1cc2ncc(C#N)c(Nc3ccc(F)cc3)c2cc1OCC` [Example 260, 4-(4-fluorophenylamino)-6,7-diethoxy-3-quinolinecarbonitrile], the IC50 in the test on SW620 (setting [3]) came out at 0.32 µg/mL (≈ 0.911 µM); in the test on MCF7 (setting [4]), 9.98 µg/mL (≈ 28.4 µM); in the test on LOX (setting [5]) it was 0.26 µg/mL (≈ 0.74 µM); in the test on A431 (setting [6]), 0.06 µg/mL (≈ 0.171 µM); in the test on SKBR3 (setting [7]), 0.08 µg/mL (≈ 0.228 µM); in test [2], 55 µM.

Regarding `CCOc1cc2ncc(C#N)c(Nc3cccc(F)c3)c2cc1OCC` [Example 263, 4-(3-Fluorophenylamino)-6,7-diethoxy-3-quinolinecarbonitrile], the half-inhibitory concentration (IC50) in the test with SW620 (setting [9]) turned out to be 5.79 µg/mL (≈ 16.5 µM); with MCF7 (setting [10]), 8.44 µg/mL (≈ 24 µM); in the test on LOX (setting [11]), 5.66 µg/mL (≈ 16.1 µM); in the test with A431 (setting [12]), 6.9 µg/mL (≈ 19.6 µM); with SKBR3 (setting [13]), 7.5 µg/mL (≈ 21.3 µM); in test [2], 80 µM.

`C=CC(=O)Nc1ccc2ncc(C#N)c(Nc3cccc(N(C)C)c3)c2c1` [Example 391, N-[3-Cyano-4-(3-dimethylaminophenylamino)quinolin-6-yl]acrylamide]: the concentration for half-maximal inhibition (IC50) in the test with SW620 (setting [9]) was 5.23 µg/mL (≈ 14.6 µM); in the test with MCF7 (setting [10]), 6.53 µg/mL (≈ 18.3 µM); with LOX (setting [11]), 0.1 µg/mL (≈ 0.28 µM); in the test with A431 (setting [12]) it was 0.34 µg/mL (≈ 0.951 µM); in the test on SKBR3 (setting [13]), 0.4 µg/mL (≈ 1.12 µM); in test [2] it was > 100 µM.

Take `C=CC(=O)Nc1ccc2ncc(C#N)c(Nc3ccc(N(C)C)cc3)c2c1` [Example 392, N-[3-Cyano-4-(4-dimethylaminophenylamino)quinolin-6-yl]acrylamide]: the IC50 in the test on SW620 (setting [9]) came to 73.3 µg/mL (≈ 205 µM); with MCF7 (setting [10]) it was 3.66 µg/mL (≈ 10.2 µM); in the test with LOX (setting [11]), 1.99 µg/mL (≈ 5.57 µM); in the test with A431 (setting [12]) it was 0.46 µg/mL (≈ 1.29 µM); in the test on SKBR3 (setting [13]), 2.61 µg/mL (≈ 7.3 µM); in test [2], 40 µM.

For the compound `CC#CC(=O)Nc1ccc2ncc(C#N)c(Nc3cccc(N(C)C)c3)c2c1` [Example 393, But-2-ynoic Acid [3-Cyano-4-(3-dimethylaminophenylamino)quinolin-6-yl]amide], the IC50 with SW620 (setting [9]) turned out to be 2.25 µg/mL (≈ 6.09 µM); with MCF7 (setting [10]) it was 4 µg/mL (≈ 10.8 µM); with LOX (setting [11]), 0.85 µg/mL (≈ 2.3 µM); in the test with A431 (setting [12]), 0.45 µg/mL (≈ 1.22 µM); in the test on SKBR3 (setting [13]), 0.84 µg/mL (≈ 2.27 µM); in test [2], 40 µM.
